The values below come from US20210401807A1, “NEW COMPOSITION COMPRISING AMORPHOUS NANOPOROUS SILICA PARTICLES” (VICORE PHARMA AB, priority 2018, published 2021).

The data set can be described thus: Dissolution kinetics in simulated lung fluid (SLF), USP 2 dissolution apparatus. The class given is physicochemical. The settings on record: SLF pH 7.4, 37° C. As to the method: The dissolution kinetics of the C21-loaded silica described in Example 5 were characterized in SLF (pH 7.4; Gamble's solution: made up with the salts NaCl, NaHCO3, KCl, MgCl2, CaCl2, Na2SO4, sodium citrate dihydrate, sodium acetate, NaH2PO4 (all from Sigma-Aldrich)) at 37° C. (Reference: Simulated Biological Fluids with Possible Application in Dissolution Testing, Marques et al,. Dissolution technologies August 2011, p15-28) using a USP 2 dissolution apparatus with stirring speed 75 rpm. Free, unloaded C21-sodium salt was used as control. Concentration of drug at set times after release was measured by a UV/vis spectrometer (Cecil 3021) at 267 nm.
The dose of C21 was calculated as 25 mg of C21 in 500 mL of SLF. […] The loaded C21 is fully released and dissolved from the silica particles in around 10 minutes.

Structures can show the parent of a compound that is named as a salt.

Take `CCCCOC(=O)NS(=O)(=O)c1sc(CC(C)C)cc1-c1ccc(Cn2ccnc2)cc1` [C21 sodium salt, N-butyloxycarbonyl-3-(4-imidazol-1-ylmethylphenyl)-5-iso-butylthio-phene-2-sulfonamide]: the “solubility in SLF conditions” value is on record as “readily soluble”. Also, the “released in the first 2 minutes” value (75 rpm, 25 mg of C21 in 500 mL) was 96%.
